Test results taken from patent US5015661A, “Chromanes and their pharmaceutical compositions and methods” (Hoffmann-La Roche Inc., priority 1989, dated 1991).
pIC50: −log10 of the molar value.

Experiments:
[1] = biological target: superoxide-dependent, iron-promoted lipid peroxidation of native rat heart cardiac lipid liposomes; assay: Lipid peroxidation inhibition (in vitro testing of antiperoxidative agents, ANTI-OX), hypoxanthine-xanthine oxidase-Fe3+.ADP, rat cardiac liposomes, MDA equivalents; assay type: biochemical; settings: 60 min, 37° C., screened at 1.0 μM, IC50 determined if inhibition ≥ 50%, read-out: ANTI-OX IC-50
Experimental: The test system employs hypoxanthine-xanthine oxidase (XO)-Fe^3+. ADP as the free radical generator and purified, native rat-heart membrane phosphoglyceride in Hepes-KCl buffer, pH 7.4, as the substrate. Inhibition of superoxide-dependent, iron-promoted lipid peroxidation in the linear reaction phase (after 1 hour of reaction) is measured as the net formation of thiobarbituric acid (TBA)-reactive material. In this system, the TBA-reactive material, isolated by HPLC, is exclusively (>95%) malondialdehyde (MDA), a fragmentation end-product arising from fatty acyl hydroperoxides and cyclic endoperoxides. […]
a) Isolation and purification of Rat Cardiac Lipid
Conscious male Sprague-Dawley rats (~275g) maintained on a normal rodent diet were decapitated. The hearts were rapidly removed and perfused via the aorta with ice-cold 10 mM Hepes buffer, pH 7.4. The aorta and atria were removed, and the ventricular tissue was blotted and weighed (wet weight). The hearts were minced on ice with scissors and finally homogenized (100 mg tissue/ml ice-cold buffer) for 15 seconds (3×5 seconds) with a Tekmar Tissumizer at "maximal" setting. The homogenate was filtered through 4-ply cheesecloth, and homogenate lipids were extracted and purified by a modified Bligh-Dyer procedure (M.D. Marshall and M. Kates, Biochem. Biophys. Acta 260, 558 (1972). The cardiac lipids were stored in CHCl3 under nitrogen at -20° C. […]
b) Preparation of Cardiac Liposomes
Liposomes were prepared from extracted and purified, native rat heart cardiac lipid and were used as substrate for free-radical attack. Cardiac lipid (in CHCl3) was placed in a glass flask and evaporated to dryness under nitrogen at room temperature; the flask was gently rotated during evaporation to yield a thin, dry lipid film. The lipid was taken up in 10 mM Hepes-0.145M KCl, pH 7.4, and was resuspended by indirect an aerobic sonification for 15 minutes at room temperature. The liposome suspension was used immediately. […]
c) preparation of Fe^3+ -ADP Chelate
A chelate was formed in Hepes-KCl buffer between Fe^3+ (1.0mM FeCl3, final concentration) and ADP (10mM, final concentration) at pH 7.4 with stirring at room temperature. Chelation was allowed to proceed for 90 minutes prior to use. The chelate was prepared fresh for each days experiments to ensure iron solubility, effective chelation, and valence state. […]
d) Thiobarbituric Acid Reaction or Determination of Malondialdehvde Equivalents Malondialdehyde (MDA) equivalents were measured as thiobarbituric acid (TBA)-reactive material by the following modification of published methods. The reaction mixture. prepared fresh daily, contained water: BHT ([…] BHT in absolute ethanol): TBA (1.5% TBA in 0.2M Tris, pH 7.0) in the volume ratio 1:1:5. To each 1.0 ml of peroxidation reaction assayed (see below), 0.35 ml reaction mixture was added. After thorough mixing, the tubes were incubated in an 80° C. shaking water bath for 30 minutes. After this time, the tubes were plunged into an ice water bath, and the reaction was immediately stopped with 0.5 ml ice-cold 91% TCA followed by 2.0 ml CHCl3 After centrifugation for 30 minutes at 2000 rpm in a Sorval HL-8 rotor (4° C.), the absorbance of the washed, pink upper phase was read at 532 nm. A standard curve (0.8-40.0 nmol MDA) was run with every assay. For each curve, MDA was freshly prepared by acidification of 1,1,3,3 -tetraethoxypropane with 75% TCA-2.3N HCl (0.15 ml acid mixture with 1.0 ml suitably diluted tetraethoxypropane). Computer-assisted regression analysis of the standard curve was used to quantify the molar amounts of MDA equivalents in the experimental samples. […]
e) Lipid peroxidation Reaction
Cardiac liposomes were subjected to superoxidedependent. iron-promoted peroxidation in glass vessels to avoid the well-known antioxidant effects of many common polymerizing agents used to fabricate plastic labware. […]

[2] = test system: arachidonic acid-induced mouse ear edema; assay: Mouse ear edema test (in vivo), arachidonic acid-induced; settings: 1 mg topical, CD-1 male mice, 0.5 mg arachidonic acid 0.5 or 4 hours later, ear biopsy weight after 1 hour, read-out: EAR EDEMA % INHIB. 1 mg
Experimental: MOUSE EAR EDEMA TEST (IN VIVO)
In this animal model system, the application of arachidonic acid to the ear results in the biosynthesis of the metabolic products […]-6,8,11,14-eicosatetraenoic acid (5-HETE), leukotriene B4 (LTB4), leukotriene C4 (LTC4), […]-5,8,10,14-eicosatetraenoic acid (12-HETE), and prostaglandin E2 (PGE2) at the site of application, followed by the influx of neutrophils into the site and the rapid development of edema within 30 to 60 minutes (See, for instance, Young, Wagner and Spries, "Tachyphylaxis in 12-O-Tetradecanoylphorbol Acetate And Arachidonic Acid-Induced Ear Edma," J. Invest. Dermatol. 80:48 (1983) and Hames, Opas and Bonney, "Arachidonic Acid MetaboIites in Mouse Ear Edma" Advances in Inflammation Research. 11:57 (1986).
CD-1 male mice weighing 15 to 25 g were employed, and they were designated as follows: (1) Control Group, in which no arachidonic acid or test compound was to be applied, (2) Arachidonic Acid-Treated Group, in which no test compound was to be applied, and (3) Treated Group, in which the test compound was to be applied first, followed by the application of arachidonic acid.
In the case of the Group (3) animals, the test compound, dissolved in acetone, was applied to the dorsal surface of the right ear of the mouse with a 25-microliter pipette or, with the dose of the test compound being varied. After 0.5 hours in some cases and 4 hours in others, the arachidonic acid was topically applied in the same manner as above to the pretreated ear areas. In each case of arachidonic acid application, an amount of 0.5 mg dissolved in 25 microliters of acetone was used. After 1 hour, the mice were sacrificed by carbon dioxide inhalation. A 6mm-diameter standard biopsy punch was used to obtain a uniform tissue sample from the ear of each mouse so treated, and the tissue samples were weighted to the nearest 0.1 mg. The percent inhibition of ear edema formation was calculated as follows: [formula]

SMILES	pIC50 [1]	inhibition in vivo at 1 mg [2] [%]
Cc1c(C)c2c(c(C)c1O)CCC(C)(C#Cc1cccs1)O2 (racemic) [Example 4, rac-3,4-Dihydro-2,5,7,8-tetramethyl-2-[(2-thienyl)ethynyl]-2H-1-benzopyran-6-ol]	6.05	61
CCCCc1ccc(C#CC2(C)CCc3c(C)c(O)c(C)c(C)c3O2)s1 (racemic) [Example 31, rac-2-[(5-Butyl-2-thienyl)ethynyl]-3,4-dihydro-2,5,7,8-tetramethyl-2H-1-benzopyran-6-ol]	6.26	24
Cc1c(C)c2c(c(C)c1O)CCC(C)(c1cc3ccccc3o1)O2 (racemic) [Example 50 (CH; H, H, H), rac-2-(2-Benzofuranyl)-3,4-dihydro-2,5,7,8-tetramethyl-2H-1-benzopyran-6-ol]	6.00	68
Cc1ccc2oc(C3(C)CCc4c(C)c(O)c(C)c(C)c4O3)cc2n1 (racemic) [Example 51, rac-3,4-Dihydro-2-(5-methylfuro[3,2[b]pyridin-2-yl)-2,5,7,8-tetramethyl-2H-1-benzopyran-6ol]	< 6.00	69
Cc1c(C)c2c(c(C)c1O)CCC(C)(c1cc3ncccc3o1)O2 (racemic) [Example 52, rac-3,4-Dihydro-2-(furo[3,2-b]pyridine-2-yl)-2,5,7,8-tetramethyl-2H-1-benzopyran-6-ol]	6.02	49
CCCc1c(O)c(C(C)=O)cc2cc(C3(C)CCc4c(C)c(O)c(C)c(C)c4O3)oc12 (racemic) [Example 53, rac-1-2-(3,4-Dihydro-6-hydroxy-2,5,7,8-tetramethyl-2H-1-benzopyran-2-yl)-6-hydroxy-7-propylbenzofuran-5-yl]ethanone]	6.22	54
Cc1c(C)c2c(c(C)c1O)CCC(C)(CCc1cccs1)O2 (racemic) [Example 57, rac-3,4-Dihydro-2,5,7,8-tetramethyl-2-[2-(2-thienyl)ethyl]-2H-1-benzo-pyran-6-ol]	< 6.00	41
Cc1c(C)c2c(c(C)c1O)CCC(C)(CCc1ccccn1)O2 (racemic) [Example 58, rac-3,4-Dihydro-2,5,7,8-tetramethyl-2-[2-(2-pyridinyl)ethyl]-2H-1-benzopyran-6-ol]	6.15	31
Cc1c(C)c2c(c(C)c1O)CCC(C)(CCc1cccnc1)O2 (racemic) [Example 59, rac-3,4-Dihydro-2,5,7,8-tetramethyl-2-[2-(3-pyridinyl)ethyl]-2H-1-benzopyran-6-ol]	6.30	48
Cc1c(C)c2c(c(C)c1O)CCC(C)(CCc1ccc(O)c(O)c1)O2 (racemic) [Example 61, rac-4-[2-(3,4-Dihydro-6-hydroxy-2,5,7,8-tetramethyl-2H-1-benzopyran-2-yl)ethyl]-1,2-benzenediol]	< 6.00	55
Cc1c(C)c2c(c(C)c1O)CC[C@](C)(C#Cc1cccs1)O2 [Example 5, (R)-3,4-Dihydro-2,5,7,8-tetramethyl-2-[(2-thienyl)ethynyl]-2H-1-benzopvran-6-ol]	6.10	66
Cc1c(C)c2c(c(C)c1O)CC[C@@](C)(C#Cc1cccs1)O2 [Example 13, (S)-3,4-Dihydro-2,5,7,8-tetramethyl-2-[(2-thienyl)ethynyl]-2H-1-benzopyran-6-ol]	< 6.00	32

Second part, led by results:

pIC50 [1]	SMILES	inhibition in vivo at 1 mg [2] [%]
6.22	Cc1c(C)c2c(c(C)c1O)CCC(C)(C#Cc1cccnc1)O2 (racemic) [Example 14, rac-3,4-Dihydro-2,5,7,8-tetramethyl-2-[(3-pyridinyl)ethynyl]-2H-1-benzopyran-6-ol]	20
< 6.00	Cc1c(C)c2c(c(C)c1O)CCC(C)(C#Cc1ccccn1)O2 (racemic) [Example 15, rac-3,4-Dihydro-2,5,7,8-tetramethyl1-2-[(2-pyridinyl)ethynyl]-2H-1-benzopyran-6-ol]	18
6.25	Cc1c(C)c2c(c(C)c1O)CCC(C)(C#Cc1csc3ccccc13)O2 (racemic) [Example 16, rac-[2-(Benzo[b]thiophen-3-yl)ethynyl]-3.4-dihydro-2,5,7,8-tetramethyl-2H-1-benzopyran-2H-1-benzopyran-6-ol]	62
6.10	Cc1c(C)c2c(c(C)c1O)CCC(C)(C#Cc1cccc(C(F)(F)F)c1)O2 (racemic) [Example 35, rac-2-{[3-(Trifluoromethyl)phenyl]ethynyl-3,4-dihydro-2,5,7,8-tetramethyl-2H-1-benzopyran-6-ol]	15
6.32	CC(=O)Oc1cc(C#CC2(C)CCc3c(C)c(O)c(C)c(C)c3O2)ccc1OCc1ccccc1 (racemic) [Example 41, rac-2-{[3-Acetyloxy-4-(phenylmethoxy)phenyl]ethynyl}-3,4-dihydro-2,5,7,8-tetramethyl-2H-1-benzopyran-6-ol]	31
6.43	Cc1c(C)c2c(c(C)c1O)CCC(C)(C#Cc1ccc(OCc3ccccc3)c(O)c1)O2 (racemic) [Example 43, rac-3,4-Dihydro-2-{[3-hydroxy-4-(phenylmethoxY)phenyl]-ethynyl}-2,5,7,8-tetramethyl-2H-1-benzopyran-6-ol]	31
